From patent publication US20050009886A1, “1,4-Dihydropyridine derivative with a guaiacoxypropanolamine and/or phenoxypropanolamine moiety” (priority 1998, published 2005)

How the values were obtained:
thoracic aorta = experiment: Isolated thoracic aorta contraction caused by 75 mM KCl; parameters: species or system Wistar rat; details: 10^−8M; 75 mM KCl contraction
Method: After sacrificing Wistar rat of weight between 300-500 gm, the thoracic aorta was immediately removed and placed in cold Kreb's solution. The fatty connecting tissue surrounding the vessel wall was removed and the thoracic aorta was cut into rings of length 5 mm. The two ends of each ring was pieced and fixed with “Z” shaped platinum wires. […] The sample was given 1 gm of tension and equilibrated for 60 minutes before the following experiments were carried out:
After thoracic aorta had reached equilibrium in the tissue trough, the normal Kreb's solution in the trough was replaced with 75 mM KCl solution to induce vasoconstriction. When the results had been recorded for at least 35 minutes, the aorta was repeatedly rinsed with normal Kreb's solution. After the aorta had re-equilibrated and at least rested for 60 minutes, different concentrations (10^−8, 10^−7, 10^−6, and 10^−5M) of compound 1 were separately added. 30 minutes later, 75 mM KCl was added again to induce vasoconstriction. This method was used to compare the differences in contraction induced by 75 mM KCl on thoracic aorta pre-treated and non-treated with compound 1.
0.1 μM of BayK8644 was first added into the tissue trough. 10 minutes later, 75 mM of concentrated Potassium solution was added to induce thoracic aorta contraction. When vasoconstriction had reached stability, different concentrations of (10^−8, 10^−7, 10^−6, and 10^−5M) compound 1 were separately added. The effects of aorta contraction induced by concentrated Potassium solution were observed.

β2 = biological target: T1, β2 (Cavia porcellus, UniProt Q8K4Z4); experiment: Guinea pig's isolated tracheal, L-isoproterenol relaxation of carbachol contraction (pA2); details: for β2 Tracheal (slope): slope of Schild regression; for β2 Value of pA2 Tracheal: vs L-isoproterenol, carbachol 10^−6 M contraction
T1 construct: a portion of tracheal approximately 4 cm long was removed; from tissue; host or cells: isolated trachea of reserpine-pretreated guinea pigs
Method: Guinea pigs of weight between 300˜500 gm were used. […] After the guinea pigs were sacrificed, a slit was made along the neck, and a portion of tracheal approximately 4 cm long was removed. […] The two ends of the tracheal were clamped with frog-heart shaped clamps, one end was fixed at the bottom of tissue bath filled with 20 ml of Kreb's solution, maintained at 37° C., while the other end was connected to a force transducer. Through a COULBOURN AT-High-Speed Videograph, long isometric contractions were recorded. After the sample was given 1.5 gm of tension and equilibrated, the following experiments were performed:
Then the tracheal was repeatedly washed with Kreb's solution for 20 minutes and 10−6 M of carbochol was added to cause contraction in the guinea pig's tracheal. […] This is the test group.
(b) Calculation of pA2: similar to the calculation method for isolated right atrium experiment.

β-adrenoreceptor (β1) [1] = biological target: T2, β-adrenoreceptor (β1) (Rattus norvegicus, UniProt P18090); experiment: Isolated left atrium, L-isoproterenol-induced contractility increase (pA2); parameters: species or system Wistar rat; details: for β1 Left Atrium (Slope): slope of Schild regression; for β1 Value of pA2 Left Atrium: vs L-isoproterenol, electrically stimulated
T2 construct: The right and left atria were then separated; from tissue; host or cells: isolated rat right atrium (spontaneously beating) and left atrium (electrically paced)
Method: The inspontaneously-beating left atrial tissue was obtained from rat's isolated right atrial tissue experiments. […] The contraction rate was 1 Hz and the resting tension 0.5 gm. After 60 minutes of equilibration, the following experiments were performed:
(a) Completion of cumulative concentration-response curve: similar to experimental method on isolated right atrium;
(b) Calculation of pA2 value: similar to calculation method on isolated right atrium.

Calcium = Calcium antagonism (pKCa^−1, Table 2)
β-adrenoreceptor (β1) [2] = biological target: T2, β-adrenoreceptor (β1); experiment: Isolated right atrium, L-isoproterenol-induced heart rate increase (pA2); parameters: species or system Wistar rat; details: for β1/β2: from pA2 difference right atrium vs tracheal; for β1 Right Atrium (Slope): slope of Schild regression; for β1 Value of pA2 Right Atrium: vs L-isoproterenol, Schild plot
Method: The right and left atria were then separated. The spontaneously-beating right atria was clipped on both end by heart shaped clips, where one end was fixed at the bottom of 10 ml of tissue bath made of physiological saline solution, and temperature maintained at 37° C. The other end of the atria was connected to a force transducer, and isometric contractions and beating rate of the right atria were recorded by COULBOURN AT-High-Speed VideoFigure. After the samples were given 250 mg of contractions and reach equilibrium the following experiments were carried out: • (a) β-adrenoceptor blocking action
Cumulative administration interval was when the previous concentration reached its greatest effect, the next concentration would be immediately given.
The equation is as follows: pA2=−Log KB Log(DRADJ−1)=nlog[B]−LogKB [formula]
[B] Test compound concentration in moles • KB: equilibrium dissociation constant • n: value of slope DR: test EC50 divided by control EC50 • CF: EC50 of second or third control groups divided by EC50 of first control group (c) Effect of Compound on the Increase of Spontaneous Beating in Right Atrium Caused by CaCl2

[3] = Heart rate and blood pressure in living rat; type: in vivo, Wistar rats; details: 1 mg/kg via femoral vein, anaesthetized rat
Excerpt: Male Wistar rats, weighing 200˜300 g were abdominal anaesthetized with pentobarbital sodium. Tracheal was cannulated to maintain normal respiration. Polyethylene tube was inserted into the left femoral vein to facilitate drug administration. A 3-way stopcock was used, with one end connected to a syringe for drug injection, while the other end was connected to the syringe filled with physiological saline. The latter was used to prevent residual drugs in the polyethylene tube after injection, which would affect experimental accuracy.
The right femoral artery was also inserted with polyethylene, and a 3-way stopcock was used too, where one end was connected to heparin solution to prevent embolism. The other end was connected to a Disposable Diaphragm Dome, TA1019, and linked to a transducer. Through an amplifier, a recorder recorded the overall and average arterial pressure; heart rate to evaluate the effect of drug on blood pressure and heart rate.

isolated atria = experiment: Direct effect (intrinsic sympathomimetic activity) on reserpine pretreated isolated atria; parameters: species or system Wistar rat; details: for direct effect on right atrium beating rate and left atrium isometric contractions: cumulative administration, reserpine pretreated
Method: Wistar rats of weight between 200˜300 gm were used. 18˜24 hours before the experiment, 5 mg/kg of reserpine was injected via abdominal cavity to remove all endogenous catecholamines. Prior experiment, Wistar rats were sacrificed, the heart was immediately removed and placed in Kreb's solution aerated with air mixture and maintained at room temperature. The right and left atria were carefully separated.

T1 sequence (Q8K4Z4 whole entry): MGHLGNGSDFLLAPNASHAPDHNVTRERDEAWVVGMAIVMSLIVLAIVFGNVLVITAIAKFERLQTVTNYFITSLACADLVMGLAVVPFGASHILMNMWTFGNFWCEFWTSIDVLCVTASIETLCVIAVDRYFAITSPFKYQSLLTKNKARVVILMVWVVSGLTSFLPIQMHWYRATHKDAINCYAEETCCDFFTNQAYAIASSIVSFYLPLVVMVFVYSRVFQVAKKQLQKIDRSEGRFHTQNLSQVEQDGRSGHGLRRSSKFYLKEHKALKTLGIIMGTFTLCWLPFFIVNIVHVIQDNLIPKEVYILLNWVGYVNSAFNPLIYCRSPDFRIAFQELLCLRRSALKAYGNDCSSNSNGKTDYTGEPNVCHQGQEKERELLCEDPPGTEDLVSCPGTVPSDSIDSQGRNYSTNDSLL
T2 sequence (P18090 whole entry): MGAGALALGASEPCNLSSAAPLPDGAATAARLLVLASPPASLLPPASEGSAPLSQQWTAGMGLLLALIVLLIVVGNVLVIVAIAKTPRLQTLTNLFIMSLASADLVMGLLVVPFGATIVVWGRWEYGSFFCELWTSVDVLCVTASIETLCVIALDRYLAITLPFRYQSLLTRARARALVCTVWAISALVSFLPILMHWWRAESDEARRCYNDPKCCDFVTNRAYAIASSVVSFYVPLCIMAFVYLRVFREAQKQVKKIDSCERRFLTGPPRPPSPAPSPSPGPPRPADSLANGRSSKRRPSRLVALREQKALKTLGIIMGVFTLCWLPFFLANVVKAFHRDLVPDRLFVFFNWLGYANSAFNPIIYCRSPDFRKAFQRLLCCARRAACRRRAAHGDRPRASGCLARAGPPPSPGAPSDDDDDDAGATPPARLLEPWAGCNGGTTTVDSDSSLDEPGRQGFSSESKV

| β2 Tracheal (slope) (β2) | β2 Value of pA2 Tracheal (β2) | β1 Left Atrium (Slope) (β-adrenoreceptor (β1) [1]) | β1 Value of pA2 Left Atrium (β-adrenoreceptor (β1) [1]) | SMILES | Aorta Relaxation (thoracic aorta) | Calcium Antagonism PKCa^−1 (Calcium) | Ratio of β1 and Calcium Antagonism (β-adrenoreceptor (β1) [2]) | β1/β2 (β-adrenoreceptor (β1) [2]) | β1 Right Atrium (Slope) (β-adrenoreceptor (β1) [2]) | β1 Value of pA2 Right Atrium (β-adrenoreceptor (β1) [2]) | Lowering of Blood Pressure [3] | Reduction of Heart Rate [3] | direct effect on right atrium beating rate and left atrium isometric contractions (isolated atria) | atrial blocking effect (isolated atria; 3×10−4M) |
| --- | --- | --- | --- | --- | --- | --- | --- | --- | --- | --- | --- | --- | --- | --- |
| (0.88 ± 0.12) | 7.20 ± 0.45 | (0.91 ± 0.21) | 6.93 ± 0.34 | COC(=O)C1=C(C)NC(C)=C(C(=O)OC)C1c1ccc(OCC(O)CNCCOc2ccccc2OC)c(OC)c1 (stereo not drawn) [Compound 2, 4-{{N-{4-[2-hydroxy-3-(2-methoxy-1-oxyethyl-aminobenzene)propoxy]-3-methoxy}phenyl}}-2,6-dimethyl-3,5-dicarbo-methoxy-1,4-dihydropyridine] | 40 ± 4% | 7.91 ± 0.35 | 0.09 | 1.28 | (0.88 ± 0.09) | 7.36 ± 0.65 | 75 ± 2 mmHg | 35 ± 4 beats/min |  |  |
| (0.87 ± 0.18) | 7.27 ± 0.32 | (0.92 ± 0.12) | 6.90 ± 0.35 | CCOC(=O)C1=C(C)NC(C)=C(C(=O)OCC)C1c1cc(Cl)ccc1OCC(O)CNC(C)(C)C (stereo not drawn) [Compound 4] | 35 ± 5% | 7.94 ± 0.56 | 0.08 | 1.31 | (0.83 ± 0.12) | 7.38 ± 0.12 | 76 ± 6 mmHg | 33 ± 3 beats/min |  |  |
| (0.91 ± 0.21) | 7.24 ± 0.12 | (0.93 ± 0.19) | 6.91 ± 0.09 | CCCCNCC(O)COc1ccc(Cl)cc1C1C(C(=O)OCC)=C(C)NC(C)=C1C(=O)OCC (stereo not drawn) [Compound 5] | 33 ± 2% | 7.89 ± 0.34 | 0.10 | 1.33 | (0.91 ± 0.23) | 7.37 ± 0.27 | 74 ± 4 mmHg | 32 ± 4 beats/min |  |  |
| (0.89 ± 0.21) | 7.28 ± 0.21 | (0.88 ± 0.27) | 6.97 ± 0.29 | CCOC(=O)C1=C(C)NC(C)=C(C(=O)OCC)C1c1ccc(OCC(O)CNCCOc2ccccc2OC)c(Cl)c1 (stereo not drawn) [Compound 7, 4-{{N-{4-[2-hydroxy-3-(2-methoxy-1-oxyethyl-aminobenzene)propoxy]-3-choloro}phenyl} }-2,6-dimethyl-3,5-dicarbo-ethoxy-1,4-dihydropyridine] | 45 ± 5% | 8.06 ± 0.27 | 0.07 | 1.34 | (0.91 ± 0.08) | 7.77 ± 0.34 | 82 ± 6 mmHg | 40 ± 2 beats/min |  |  |
| (0.92 ± 0.17) | 7.27 ± 0.19 | (0.89 ± 0.12) | 7.03 ± 0.18 | CCOC(=O)C1=C(C)NC(C)=C(C(=O)OCC)C1c1cc([N+](=O)[O-])ccc1OCC(O)CNC(C)(C)C (stereo not drawn) [Compound 8] | 43 ± 3% | 8.09 ± 0.13 | 0.08 | 1.29 | (0.83 ± 0.21) | 7.89 ± 0.23 | 80 ± 3 mmHg | 40 ± 4 beats/min |  |  |
| (0.88 ± 0.23) | 7.33 ± 0.24 | (0.91 ± 0.18) | 7.12 ± 0.09 | CCOC(=O)C1=C(C)NC(C)=C(C(=O)OCC)C1c1cc([N+](=O)[O-])ccc1OCC(O)CNCCOc1ccccc1OC (stereo not drawn) [Compound 9] | 47 ± 2% | 8.12 ± 0.32 | 0.07 | 1.30 | (0.88 ± 0.09) | 7.78 ± 0.12 | 85 ± 6 mmHg | 40 ± 5 beats/min |  |  |
|  |  |  |  | CC(C)NC[C@H](O)c1ccc(O)c(O)c1 [L-isoproterenol] |  |  |  |  |  |  |  |  | dose-dependently increase the right atrium beating rate and left atrium isometric contractions |  |
|  |  |  |  | CC(C)NCC(O)COc1cccc2ccccc12 (stereo not drawn) [Propranolol] |  |  |  |  |  |  |  |  | could retard the beating rate and isometric contractions |  |
|  |  |  |  | CC(C)NCC(O)COc1ccc(CC(N)=O)cc1 (stereo not drawn) [atenolol] |  |  |  |  |  |  |  |  |  | almost does not have atrial blocking effect |

| SMILES | β2 Tracheal (slope) (β2) | β2 Value of pA2 Tracheal (β2) | β1 Left Atrium (Slope) (β-adrenoreceptor (β1) [1]) | β1 Value of pA2 Left Atrium (β-adrenoreceptor (β1) [1]) | Aorta Relaxation (thoracic aorta) | Calcium Antagonism PKCa^−1 (Calcium) | Ratio of β1 and Calcium Antagonism (β-adrenoreceptor (β1) [2]) | β1/β2 (β-adrenoreceptor (β1) [2]) | β1 Right Atrium (Slope) (β-adrenoreceptor (β1) [2]) | β1 Value of pA2 Right Atrium (β-adrenoreceptor (β1) [2]) | Lowering of Blood Pressure [3] | Reduction of Heart Rate [3] | direct effect on right atrium beating rate and left atrium isometric contractions (isolated atria) | atrial blocking effect (isolated atria; 3×10−4M) |
| --- | --- | --- | --- | --- | --- | --- | --- | --- | --- | --- | --- | --- | --- | --- |
| CCOC(=O)C1=C(C)NC(C)=C(C(=O)OCC)C1c1ccc(OCC(O)CNCCOc2ccccc2OC)c(OC)c1 (stereo not drawn) [Compound 3, 4-{{N-{4-[2-hydroxy-3-(2-methoxy-1-oxyethyl-aminobenzene)propoxy]-3-methoxy)phenyl}}-2,6-dimethyl-3,5-dicarboethoxy-1,4-dihydropyridine] | (0.92 ± 0.23) | 7.31 ± 0.23 | (0.89 ± 0.03) | 6.97 ± 0.12 | 41 ± 2% | 7.96 ± 0.27 | 0.08 | 1.26 | (0.92 ± 0.27) | 7.47 ± 0.38 | 78 ± 5 mmHg | 37 ± 5 beats/min |  |  |
| CCOC(=O)C1=C(C)NC(C)=C(C(=O)OCC)C1c1cc(Cl)ccc1OCC(O)CNCCOc1ccccc1OC (stereo not drawn) [Compound 6] | (0.90 ± 0.19) | 7.31 ± 0.19 | (0.91 ± 0.09) | 7.01 ± 0.28 | 45 ± 4% | 8.01 ± 0.45 | 0.11 | 1.29 | (0.88 ± 0.12) | 7.41 ± 0.34 | 80 ± 3 mmHg | 35 ± 5 beats/min |  |  |
